Results reported in article PMC9040621 (2021).

test system: d(CCAATTGG)2 (DNA, duplex) CCAATTGG; test: differential scanning calorimetry; details: Na+ (sodium phosphate buffer); 100 μM DNA, compound/DNA = 1; free Tm 41.73 °C

ΔTm [°C] | Compound
13.88 | O=c1cc(-c2ccccc2)oc2cc(O)c(O)c(O)c12
12.14 | O=c1cc(-c2ccccc2)oc2cc(O)cc(O)c12
-2.07 | O=c1cc(-c2ccccc2)oc2ccccc12
